Values after ≈ are worked out from the molar mass of the structure shown.
How the values were obtained:
Format in all cases: cell-based, human
JNK = assay: Western blot JNK phosphorylation; conditions: THP-1, 24 h; specioside all concentrations except 60 μg/mL in presence of APC
Method: (§1) THP-1 cells were seeded in 24-well plates (5 × 10^5 cells/well), and after 24 h of incubation, they were pretreated with 1 µM apicidin for 24 h and then treated with different concentrations of the n-butanol extract, catalposide, and specioside for 24 h. After treatment, the cells were lysed with an Abcam protein extraction kit (ab270054), and a phosphatase inhibitor cocktail (ab201115) was added. The supernatants of the cell extracts were quantified with a BCA protein assay (Thermo Scientific Pierce #23227, Waltham, MA, USA). Equivalent amounts of protein were electrophoresed on 10% SDS polyacrylamide gels and then electroblotted onto 0.45 μm polyvinylidene difluoride (PVDF) membranes (GE Healthcare, Chicago, IL, USA). […] The signals were detected using SuperSignal™ West Pico PLUS Chemiluminescent Substrate (Thermo Scientific Pierce cat 34577) and analyzed with a ChemiDoc XRS+ system (Bio-Rad, Hercules, CA, USA). The density of each band was measured using ImageJ software V. 1.53n, 7 November 2021 (NIH, Bethesda, MD, USA), and the protein levels were normalized to the GAPDH levels. The data are expressed as the means of three independent experiments. […]

BAX = assay: Western blot Bax protein; conditions: THP-1, catalposide 44 and 66 μg/mL, specioside 20, 40 and 60 μg/mL
Method: as §1

Jurkat cells = assay: MTT cell viability assay, Jurkat cells; conditions: for IC50: Homo sapiens, Jurkat, MTT, n = 3; for SI (selectivity index): IC50 PBMC / IC50 Jurkat
Method: Jurkat and THP-1 cell lines were purchased from the American Type Culture Collection (ATCC, Rockville, MD, USA); Jurkat is a human lymphocytic cell line representing acute T-cell leukemia, and THP-1 is a monocytic cell line that represents acute myelogenous leukemia (AML). […] Cat Nos. […] The cells were maintained at 37 °C in a humidified atmosphere with 5% CO2. The culture medium was exchanged with fresh medium every 2-3 days. Peripheral blood mononuclear cells (PBMCs) were isolated from normal human venous blood. Further, 10 milliliters of human blood was mixed with 10 mL of RPMI-1640 containing 50 μL of heparin and gradually poured over 1 mL of HISTOPAQUE®-1119 (Sigma). The plasma was removed by centrifugation at 3000 rpm for 30 min. The peripheral blood mononuclear cell-containing layer was collected with a pipette and diluted in 4 mL of PBS. PBMCs were harvested by centrifugation at 1500 rpm for 10 min at room temperature, resuspended in RPMI-1640 with 10% FBS, and incubated at 37 °C in 5% CO2 humidified air. […] Doxorubicin was used as a reference standard drug (positive control). After treatment, the medium was discarded; 200 μL of RPMI 1640 medium without phenol red containing 0.5 mg/mL MTT (Sigma Chemical Co., Saint Louis, MO, USA; Cat. No. […] The plates were incubated for four hours at 37 °C with 5% CO2 in a humidified atmosphere. The medium was discarded, and 100 μL of DMSO was added to solubilize the formazan crystals. The absorbance was measured with an ELISA microplate reader at 492 nm (ELx800; BioTek Instruments Inc., Winooski, VT, USA). The percentage of viable cells was calculated on the basis of the nontreated control (taken as 100%). […] Three independent assays were performed, each in triplicate. The selectivity index corresponds to the ratio of the IC50 value calculated for the activity of synthesized compounds on a regular cell line (PBMCs) to that of the IC50 calculated for cancer cell lines (Jurkat and THP-1). Values greater than two were optimal for an efficient selectivity index.

ERK = assay: Western blot ERK phosphorylation; conditions: THP-1, 24 h
Method: as §1

THP-1 cells [1] = assay: Flow cytometric apoptosis, Annexin V-CF647/7-AAD; conditions: THP-1, 24 h (Figure S5)
Method: In 96-well plates, 8 × 10^4 cells were treated with 25, 50, and 100 µg/mL extract and 400 µM doxorubicin (positive control) for 24 and 48 h. The cells were washed with 1X PBS, and apoptotic cells were detected by staining with 100 µL of Annexin V-CF647 and 5 µL of the 7-AAD Apoptosis Annexin Red Kit (FCCH100108 FlowCellect, Millipore, Darmstadt, Germany). The cells were incubated at room temperature for 15 min in the dark and analyzed on a Guava Millipore flow cytometer (Merck Millipore, Bedford, MA, USA) using InCyte software (version 3.1, Merck Millipore). The percentage of annexin V-positive cells was evaluated.

THP-1 cells [2] = assay: Cell cycle analysis by flow cytometry; conditions: THP-1 (Figure S6)
Method: After treatment with the extract, 7 × 10^4 cells were harvested, washed with PBS, fixed with 200 µL of ice-cold 70% ethanol, and maintained at 4 °C for 4 h before staining. The cell pellet was washed in 1X PBS, resuspended in 200 µL of Guava Cell Cycle reagent (#4500-0220, Millipore), and incubated in the dark at 37 °C for 30 min before analysis with a Guava flow cytometer (Merck Millipore, Bedford, MA, USA) using InCyte software (version 3.1, Merck Millipore).. Centrifugation was performed at 1200 rpm for 5 min at room temperature for each step.

Bcl-2 = assay: Western blot Bcl-2 protein; conditions: THP-1, catalposide 44 μg/mL, specioside 40 μg/mL, APC pretreatment (Figure 9)
Method: as §1

Q: How did the “phosphorylation of the JNK protein compared with control” value (JNK) turn out when `O=C(O[C@H]1[C@@H]2C=CO[C@@H](O[C@@H]3O[C@H](CO)[C@@H](O)[C@H](O)[C@H]3O)[C@@H]2[C@@]2(CO)O[C@@H]12)c1ccc(O)cc1` [Catalposide, catalposide] was run?
A: The value was “did not significantly change”.

Q: And the “expression of Bax protein with APC pretreatment” value (BAX)?
A: Its value is “increased”.

Q: And the IC50 (Jurkat cells; 12 h)?
A: Its IC50 is 107 ± 5.3 µg/mL (≈ 221 µM).

Q: And the IC50 (Jurkat cells; 24 h)?
A: Its IC50 is 92.8 ± 1.5 µg/mL (≈ 192 µM).

Q: What about the IC50 (Jurkat cells; 48 h) of the same compound?
A: Its IC50 is 71.2 ± 2.8 µg/mL (≈ 148 µM).

Q: And the “SI (selectivity index)” value (Jurkat cells; 12 h)?
A: The value was 1.18.

Q: And the “SI (selectivity index)” value (Jurkat cells; 24 h)?
A: The value was 0.94.

Q: And the “SI (selectivity index)” value (Jurkat cells; 48 h)?
A: Its value is 0.61.

Q: And the “phosphorylation of the ERK protein compared with control” value (ERK)?
A: Its value is “decreased protein phosphorylation but not significantly”.

Q: And the “apoptosis compared with control” value (THP-1 cells [1])?
A: Its value is “increased apoptosis”.

Q: And the “percentage of cells in the G0/G1 phase compared with control” value (THP-1 cells [2])?
A: The value was “the increase was significant”.

Q: And the “antiapoptotic protein Bcl-2 (Western blot)” value (Bcl-2)?
A: Its value is “decrease”.

Q: Which “phosphorylation of the JNK protein compared with control” value (JNK) does the source give for `O=C(/C=C/c1ccc(O)cc1)O[C@H]1[C@@H]2C=CO[C@@H](O[C@@H]3O[C@H](CO)[C@@H](O)[C@H](O)[C@H]3O)[C@@H]2[C@@]2(CO)O[C@@H]12` [Specioside] here?
A: Its value is “significantly phosphorylated”.

Q: And the “expression of Bax protein with APC pretreatment” value (BAX)?
A: The value was “increased”.

Q: And the IC50 (Jurkat cells; 12 h)?
A: The IC50 was 137.7 ± 1.3 µg/mL (≈ 271 µM).

Q: And the IC50 (Jurkat cells; 24 h)?
A: Its IC50 is 81.7 ± 3.5 µg/mL (≈ 161 µM).

Q: And the IC50 (Jurkat cells; 48 h)?
A: The IC50 was 68.9 ± 2.1 µg/mL (≈ 135 µM).

Q: And the “SI (selectivity index)” value (Jurkat cells; 12 h)?
A: Its value is 1.20.

Q: What about the “SI (selectivity index)” value (Jurkat cells; 24 h) of the same compound?
A: The value was 0.86.

Q: And the “SI (selectivity index)” value (Jurkat cells; 48 h)?
A: The value was 0.79.

Q: What about the “phosphorylation of the ERK protein compared with control” value (ERK) of the same compound?
A: The value was “did not significantly change”.

Q: What about the “apoptosis compared with control” value (THP-1 cells [1]) of the same compound?
A: The value was “increased apoptosis”.

Q: What about the “percentage of cells in the G0/G1 phase compared with control” value (THP-1 cells [2]) of the same compound?
A: The value was “the increase was significant”.

Q: And the “antiapoptotic protein Bcl-2 (Western blot)” value (Bcl-2)?
A: The value was “decrease”.

Reference: article PMC11396062, “The n-Butanol Extract Obtained from the Inner Bark of Tabebuia rosea (Bertol.) DC, Specioside, and Catalposide Induce Leukemia Cell Apoptosis in the Presence of Apicidin” (Molecules, 2024)
